Results from patent US12077503B2, “Substituted cyclic amides and their use as herbicides” (FMC CORPORATION, priority 2015, dated 2024).

What was measured:
Experiment in all cases: Test C flooded paddy test
Format in all cases: in vivo
[1] = system: sedge, umbrella (small-flower umbrella sedge, Cyperus difformis); conditions: Flood; for Plant response rating (scale of 0 to 100), Sedge, Umbrella: 0 is no effect, 100 is complete control
Summary of the method: (§1)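 Visual 0–100 injury rating versus controls (0 = no effect, 100 = complete control) at 13 to 15 d. 2-leaf-stage plants; pots flooded 3 cm over soil surface, test compound added to paddy water; greenhouse.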

[2] = system: barnyardgrass (Echinochloa crus-galli); conditions: Flood; for Plant response rating (scale of 0 to 100), Barnyardgrass: 0 is no effect, 100 is complete control
Summary of the method: as §1

[3] = system: rice (Oryza sativa); conditions: Flood; for Plant response rating (scale of 0 to 100), Rice: 0 is no effect, 100 is complete control
Summary of the method: as §1

[4] = system: ducksalad (Heteranthera limosa); conditions: Flood; for Plant response rating (scale of 0 to 100), Ducksalad: 0 is no effect, 100 is complete control
Summary of the method: as §1

[5] = 31 g ai/ha, scale 0 to 100 (0 no effect, 100 complete control), 13 to 15 d

| SMILES | Plant response rating, Sedge, Umbrella [1, 5] | Plant response rating (scale of 0 to 100), Sedge, Umbrella ([1]; 62 g ai/ha) | Plant response rating (scale of 0 to 100), Sedge, Umbrella ([1]; 125 g ai/ha) | Plant response rating (scale of 0 to 100), Sedge, Umbrella ([1]; 250 g ai/ha) | Plant response rating, Barnyardgrass [2, 5] | Plant response rating (scale of 0 to 100), Barnyardgrass ([2]; 62 g ai/ha) | Plant response rating (scale of 0 to 100), Barnyardgrass ([2]; 125 g ai/ha) | Plant response rating (scale of 0 to 100), Barnyardgrass ([2]; 250 g ai/ha) | Plant response rating, Rice [3, 5] | Plant response rating (scale of 0 to 100), Rice ([3]; 62 g ai/ha) | Plant response rating (scale of 0 to 100), Rice ([3]; 125 g ai/ha) | Plant response rating (scale of 0 to 100), Rice ([3]; 250 g ai/ha) | Plant response rating, Ducksalad [4, 5] | Plant response rating (scale of 0 to 100), Ducksalad ([4]; 62 g ai/ha) | Plant response rating (scale of 0 to 100), Ducksalad ([4]; 125 g ai/ha) | Plant response rating (scale of 0 to 100), Ducksalad ([4]; 250 g ai/ha) | Plant response rating (scale of 0 to 100), Sedge, Umbrella ([1]; 31 g ai/ha) | Plant response rating (scale of 0 to 100), Barnyardgrass ([2]; 31 g ai/ha) | Plant response rating (scale of 0 to 100), Rice ([3]; 31 g ai/ha) | Plant response rating (scale of 0 to 100), Ducksalad ([4]; 31 g ai/ha) |
| --- | --- | --- | --- | --- | --- | --- | --- | --- | --- | --- | --- | --- | --- | --- | --- | --- | --- | --- | --- | --- |
| O=C1NCC(c2cccc(OC(F)(F)C(F)F)c2)C1C(=O)Nc1ccccc1F (racemic) [Compound 695] | 0 | 0 | 0 | 0 | 20 | 60 | 65 | 70 | 0 | 0 | 15 | 15 | 30 | 50 | 80 | 100 | – | – | – | – |
| CN1CC(c2ccc(F)c(C(F)(F)F)c2)C(C(=O)Nc2cccc(F)c2F)C1=O (centres unmarked) [Compound 613] | – | 0 | 0 | 0 | – | 30 | 50 | 60 | – | 0 | 10 | 20 | – | 60 | 75 | 100 | 0 | 0 | 0 | 0 |
